Source: US20210030703A1, “USE OF CALORIC RESTRICTION MIMETICS FOR POTENTIATING CHEMO-IMMUNOTHERAPY FOR THE TREATMENT OF CANCERS” (INSERM (INSTITUT NATIONAL DE LA SANTÉ ET DE LA RECHERCHE …, priority 2018, published 2021)

How the values were obtained:
MCA205 fibrosarcoma [1] = assay: Subcutaneous MCA205 fibrosarcoma: tumor growth, cure and survival under chemo-immunotherapy; format: in vivo, C57B1/6 mice; conditions: for Efficacy of MTX + ICIs (anti-PD-1 plus anti-CTLA-4) chemo-immunotherapy when the CRM is added: figure legends FIG. 2, 3, 4, 6
Experimental: Mouse strain and housing. Six- to 8-week-old wild-type female C57B1/6 mice were obtained from Envigo RMS SARL (Gannat, France). Animals were maintained in specific pathogen-free conditions in a temperature-controlled environment with 12 h light, 12 h dark cycles and received food and water ad libitum (unless precised otherwise). Animal experiments were in compliance with the EU Directive 63/2010 and approved by the Ethical Committee of the Cordeliers Research Center (Paris, France). All mouse experiments were randomized and blinded, and sample sizes were calculated to detect a statistically significant effect.
In vivo experimentations. Tumor engraftment was performed through subcutaneous injection of 3×10^5 MCA205 fibrosarcoma tumor cells (in 100 μl PBS) in the right flank of the mice. Tumor volume was monitored using a digital caliper and calculated according to the formula: volume=length×width×height/8×4/3 pi. When tumor reached 20 mm^3 on average, mice underwent fasting (48 hours without food but ad libitum access to water) or were given caloric restriction mimetics (CRMs) such as aspirin (Asp; 10 mg/kg i.p. in 200 μl phosphate buffered saline [PBS] five times per week), hydroxycitrate (HC; 5 mg/ml in drinking water daily) or spermidine (Spd; 50 mg/kg i.p. in 200 μl Earle's balanced salt solution three times per week), or were treated with mitoxantrone (MTX; 5.17 mg/kg i.p. in 200 μl PBS), or with the immune checkpoint inhibitors (ICIs) anti-PD-1 (10 mg/kg i.p. in 200 μl PBS) and/or anti-CTLA-4 (5 mg/kg i.p. in 200 μl PBS). Tumor size was carefully monitored up to 50 days post-MTX. Antitumor immunity induced by the treatment in cured mice was challenged by subcutaneously re-engrafting the same tumor (3×10^5 syngeneic MCA205 fibrosarcoma cells) in one flank while an antigenically unrelated cancer (3×10^5 syngeneic TC1 lung carcinoma cells) was implanted into the contralateral flank.
Statistical analyses. For tumor size comparison, Student unpaired t test or one-way ANOVA (Holm-Sidak) were performed. All statistical analyses were performed using GraphPad Prism version 6 for Windows (GraphPad Software, La Jolla, Calif., USA). Differences were considered significant when p value<0.05.

[2] = tested on: MCA205 fibrosarcoma cells; assay: Rechallenge of cured mice with the same tumor (MCA205); format: in vivo, C57B1/6 mice; conditions: mice cured from MCA205 following MTX+ICIs+Spd treatment (FIG. 4G)
Experimental: (§1) In vivo experimentations. Tumor engraftment was performed through subcutaneous injection of 3×10^5 MCA205 fibrosarcoma tumor cells (in 100 μl PBS) in the right flank of the mice. […] Tumor size was carefully monitored up to 50 days post-MTX. Antitumor immunity induced by the treatment in cured mice was challenged by subcutaneously re-engrafting the same tumor (3×10^5 syngeneic MCA205 fibrosarcoma cells) in one flank while an antigenically unrelated cancer (3×10^5 syngeneic TC1 lung carcinoma cells) was implanted into the contralateral flank.

TC1 lung carcinoma cells = assay: Rechallenge of cured mice with antigenically unrelated TC1 cells in the contralateral flank; format: in vivo, C57B1/6 mice; conditions: mice cured from MCA205 following MTX+ICIs+Spd treatment (FIG. 4G)
Experimental: as §1

[3] = tested on: immune infiltrate of MCA205 tumors; assay: Immunophenotyping of the tumor immune infiltrate by flow cytometry; format: in vivo, C57B1/6 mice; conditions: data not shown
Experimental: 3 or 11 days post-chemotherapy (d3 or d11), mice were euthanized and the tumors were withdrawn and placed in gentleMACS C tubes (ref 130-096-334 from Miltenyi BiotecTM) previously filled with 1 ml of DMEM or RPMI medium, and immediately put on ice. […] Then, cells were stained with a live dead dye (ref L34959 from ThermoFisher ScientificTM) and an FCblock receptor targeting antibody. For the surface stainings, several anti-mouse fluorochrome-coupled antibodies were employed, that were for 1) myeloid cells “staining 1”: anti-CD45 APC-Fire750 (clone 30E-11, ref 130154 BiolegendTM), anti-Ly-6G PE (clone 1A8, ref 551461 BDTM), anti-Ly-6C FITC (clone AL-21, ref 553104, BDTM), anti-CD11b V450 (clone M1/70, ref 560455 BDTM), anti-CD11c PE-Cy7 (clone HL3, ref 558470 BDTM), anti-CD80 PerCP-Cy5.5 (16-10A1, ref 104722 BiolegendTM), and anti-MHC-II APC (clone M5/114.15.2, ref 107614 BiolegendTM) 2) T-cells “staining 2”: anti-CD3 APC (clone 17A2, ref 17-0032-82 eBioscienceTM), anti-CD8 PE (clone 53-6.7, ref 553032 BDTM), anti-CD4 PerCP-Cy5.5 (clone RM4-5, ref 45-0042-82 eBioscienceTM), anti-CD25 PE-Cy7 (clone PC61.5, ref 25-0251-82 InvitrogenTM), anti-ICOS BV421 (clone 7E.17G9, ref 564070 BDTM) and anti-PD-1 APC-Fire750 (clone 29F.1Al2, ref 135240 BiolegendTM) 3) PD-L1 expressing-cells “staining 4”: anti-CD45 AlexaFluor647 (clone 30E-11, ref 103-124 BiolegendTM), anti-PD-L1 BV421 (clone MIHS, ref 564716 BDTM) and anti-PD-L2 PE-Dazzle594 (clone TY25, ref 107215 BiolegendTM) 4) NKT cells “staining 5”: anti-CD3 FITC (clone 17A2, ref 11-00-32-82 eBioscienceTM) and anti-NK1.1 PerCP-Cy5.5 (clone PK136, ref 551114 BDTM). After the fixation and permeabilization of the cells (thanks to the Cytofix/Cytoperm kit, ref 554714 BDTM for stainings 1, 3, 4 and 5; and with the Foxp3/Transcription Factor kit, ref 00-5523-00 eBioscienceTM for staining 2), intracellular stainings were performed using for “staining 2”: anti-FoxP3 FITC (clone FJK-16s, ref 11-5773-82 eBioscienceTM) and for “staining 3”: anti-IFNg APC (clone XMG1.2, ref 505-810 BiolegendTM), anti-TNFα APC-Cy7 (clone MP6-XT22, ref 506344 BiolegendTM) and anti-IL-2 PE-Dazzle 594 (clone JES6-5H4, ref 503-840 BiolegendTM). Finally, cells were resuspended in FACS buffer and analyzed on a flow cytometer BD LSR II.

whole MCA205 tumors = assay: RNA-seq analyses of whole tumors; format: in vivo, C57B1/6 mice; conditions: day 3 post-chemotherapy (MTX); data not shown
MCA205 fibrosarcoma [4] = assay: Subcutaneous MCA205 fibrosarcoma: tumor growth, cure and survival under chemo-immunotherapy; format: in vivo, C57B1/6 mice
[5] = background, reference (9); cited from earlier work

NCCCCNCCCN [spermidine, H2N—(CH2)3-NH(CH2)4-NH2]
Tumor-free mice (MCA205 fibrosarcoma [1]; MTX pre-treatment associated with the CRM, then CTLA-4/PD-1-blocking antibodies (FIG. 6)): 8 out of 10 | Efficacy of MTX + ICIs (anti-PD-1 plus anti-CTLA-4) chemo-immunotherapy when the CRM is added (MCA205 fibrosarcoma [1]): significantly improves tumor outcome | Efficacy of MTX + ICIs (anti-PD-1 plus anti-CTLA-4) chemo-immunotherapy when the CRM is added (MCA205 fibrosarcoma [1]; listed as Spd): further enhanced | Response to CTLA-4/PD-1-blockade (MCA205 fibrosarcoma [1]; pretreated with the CRM alone (without MTX), data not shown): did not respond | Cure of established tumor (MCA205 fibrosarcoma [1]; spermidine i.p. 3 times per week + MTX chemotherapy + dual CTLA-4/PD-1-targeting immunotherapy): 7 out of 9 | Outgrowth of reinjected MCA205 cancer cells [2]: did not led to the outgrowth | Tumor formation by TC1 cancer cells injected into the opposite flank (TC1 lung carcinoma cells): yielded tumors | Increase in the density of total CD3+ and CD8+ T cell infiltrate ([3]; combined with MTX): neither HC nor spermidine | Myeloid infiltrate ([3]; day 3 post-chemotherapy (MTX)): no major increments | Macrophage subpopulation with an M1 phenotype (Ly6G-F4/80+CD11c-CD11b+CD38+) ([3]; day 11 post-MTX): expansion | Evidence of local immunostimulation (whole MCA205 tumors): failed to yield convincing evidence | Cure rate (MCA205 fibrosarcoma [4]; CRM added to OXA+PD-1 blockade): 70% | Cured mice (MCA205 fibrosarcoma [4]; CRM added to OXA+PD-1 blockade): 7 out of 10 | Efficacy of OXA and anti-PD-1 combination when the CRM is added (MCA205 fibrosarcoma [4]; figure legend FIG. 7): further enhanced | Efficacy of anticancer chemotherapy with immunogenic cell death (ICD) inducers [5]: able to improve the efficacy

O=C1[O][Pt]2([NH][C@@H]3CCCC[C@H]3[NH]2)[O]C1=O [OXA, [(1R,2R.)-cyclohexane-1,2-diamine](ethanedioato-O,O′)platinum(II)]
Cure rate (MCA205 fibrosarcoma [4]; OXA+PD-1 blockade): 40%

CC1=NN(c2ccc(C(=O)O)cc2)C(=O)/C1=C\c1ccc(-c2cc(C)c(C)cc2[N+](=O)[O-])o1 [C646]
Efficacy of anticancer chemotherapy with immunogenic cell death (ICD) inducers [5]: able to improve the efficacy

O=C(O)C[C@]1(O)C[C@H](CCCCCCc2ccc(Cl)cc2Cl)OC1=O [SB2049901, (3R,5S)-re1-5-[6-(2,4-Dichlorophenyl)hexyl]tetrahydro-3-hydroxy-2-oxo-3-furanacetic acid]
Efficacy of anticancer chemotherapy with immunogenic cell death (ICD) inducers [5]: able to improve the efficacy
